Source: ChEMBL document CHEMBL4507282, “Data for DCP probe BI-1950” (2021)

Tests used:
[1] = target: Activin receptor type-1 (Homo sapiens) (UniProt Q04771); settings: Compound concentration 1000.0 nM
[2] = target: Mitogen-activated protein kinase kinase kinase 5 (Homo sapiens) (UniProt Q99683); settings: Compound concentration 1000.0 nM
[3] = target: Tyrosine-protein kinase BTK (Homo sapiens) (UniProt Q06187); settings: Compound concentration 1000.0 nM
[4] = target: Calcium/calmodulin-dependent protein kinase type II subunit beta (Homo sapiens) (UniProt Q13554); settings: Compound concentration 1000.0 nM
[5] = target: Calcium/calmodulin-dependent protein kinase type II subunit delta (Homo sapiens) (UniProt Q13557); settings: Compound concentration 1000.0 nM
[6] = target: Cyclin-dependent kinase 11A (Homo sapiens) (UniProt Q9UQ88); settings: Compound concentration 1000.0 nM
[7] = target: Cyclin-dependent kinase 5 (Homo sapiens) (UniProt Q00535); settings: Compound concentration 1000.0 nM
[8] = target: Serine/threonine-protein kinase 17B (Homo sapiens) (UniProt O94768); settings: Compound concentration 1000.0 nM
[9] = target: Dual specificity tyrosine-phosphorylation-regulated kinase 2 (Homo sapiens) (UniProt Q92630); settings: Compound concentration 1000.0 nM
[10] = system: Epidermal growth factor receptor (Homo sapiens), P00533 [L861Q]; settings: Compound concentration 1000.0 nM
[11] = target: Ephrin type-A receptor 4 (Homo sapiens) (UniProt P54764); settings: Compound concentration 1000.0 nM
[12] = target: Mitogen-activated protein kinase 3 (Homo sapiens) (UniProt P27361); settings: Compound concentration 1000.0 nM
[13] = target: Mitogen-activated protein kinase 6 (Homo sapiens) (UniProt Q16659); settings: Compound concentration 1000.0 nM
[14] = target: G protein-coupled receptor kinase 3 (Homo sapiens) (UniProt P35626); settings: Compound concentration 1000.0 nM
[15] = target: Hormonally up-regulated neu tumor-associated kinase (Homo sapiens) (UniProt P57058); settings: Compound concentration 1000.0 nM
[16] = target: Interleukin-1 receptor-associated kinase 1 (Homo sapiens) (UniProt P51617); settings: Compound concentration 1000.0 nM
[17] = target: Interleukin-1 receptor-associated kinase 3 (Homo sapiens) (UniProt Q9Y616); settings: Compound concentration 1000.0 nM
[18] = target: Tyrosine-protein kinase ITK/TSK (Homo sapiens) (UniProt Q08881); settings: Compound concentration 1000.0 nM
[19] = target: Tyrosine-protein kinase JAK3 (Homo sapiens) (UniProt P52333); settings: Compound concentration 1000.0 nM
[20] = target: Mast/stem cell growth factor receptor Kit (Homo sapiens) (UniProt P10721); settings: Compound concentration 1000.0 nM
[21] = target: Serine/threonine-protein kinase LATS2 (Homo sapiens) (UniProt Q9NRM7); settings: Compound concentration 1000.0 nM
[22] = target: Serine/threonine-protein kinase MAK (Homo sapiens) (UniProt P20794); settings: Compound concentration 1000.0 nM
[23] = target: Tyrosine-protein kinase Mer (Homo sapiens) (UniProt Q12866); settings: Compound concentration 1000.0 nM
[24] = system: Hepatocyte growth factor receptor (Homo sapiens), P08581 [M1250T]; settings: Compound concentration 1000.0 nM
[25] = target: Muscle, skeletal receptor tyrosine-protein kinase (Homo sapiens) (UniProt O15146); settings: Compound concentration 1000.0 nM
[26] = target: Serine/threonine-protein kinase Nek4 (Homo sapiens) (UniProt P51957); settings: Compound concentration 1000.0 nM
[27] = target: Mitogen-activated protein kinase kinase kinase 14 (Homo sapiens) (UniProt Q99558); settings: Compound concentration 1000.0 nM
[28] = target: Mitogen-activated protein kinase 13 (Homo sapiens) (UniProt O15264); settings: Compound concentration 1000.0 nM
[29] = target: Phosphorylase b kinase gamma catalytic chain, skeletal muscle/heart isoform (Homo sapiens) (UniProt Q16816); settings: Compound concentration 1000.0 nM
[30] = target: Phosphatidylinositol 4-phosphate 5-kinase type-1 gamma (Homo sapiens) (UniProt O60331); settings: Compound concentration 1000.0 nM
[31] = target: Serine/threonine-protein kinase N2 (Homo sapiens) (UniProt Q16513); settings: Compound concentration 1000.0 nM
[32] = target: Serine/threonine-protein kinase PLK4 (Homo sapiens) (UniProt O00444); settings: Compound concentration 1000.0 nM
[33] = target: Protein kinase C epsilon type (Homo sapiens) (UniProt Q02156); settings: Compound concentration 1000.0 nM
[34] = target: RAF proto-oncogene serine/threonine-protein kinase (Homo sapiens) (UniProt P04049); settings: Compound concentration 1000.0 nM
[35] = target: Receptor-interacting serine/threonine-protein kinase 2 (Homo sapiens) (UniProt O43353); settings: Compound concentration 1000.0 nM
[36] = target: Serine/threonine-protein kinase SBK1 (Homo sapiens) (UniProt Q52WX2); settings: Compound concentration 1000.0 nM
[37] = target: STE20-like serine/threonine-protein kinase (Homo sapiens) (UniProt Q9H2G2); settings: Compound concentration 1000.0 nM
[38] = target: TGF-beta receptor type-1 (Homo sapiens) (UniProt P36897); settings: Compound concentration 1000.0 nM
[39] = target: TGF-beta receptor type-2 (Homo sapiens) (UniProt P37173); settings: Compound concentration 1000.0 nM
[40] = target: Serine/threonine-protein kinase tousled-like 2 (Homo sapiens) (UniProt Q86UE8); settings: Compound concentration 1000.0 nM
[41] = target: Serine/threonine-protein kinase TNNI3K (Homo sapiens) (UniProt Q59H18); settings: Compound concentration 1000.0 nM
[42] = target: Mitogen-activated protein kinase kinase kinase 20 (Homo sapiens) (UniProt Q9NYL2); settings: Compound concentration 1000.0 nM
[43] = target: 5-hydroxytryptamine receptor 6 (Homo sapiens) (UniProt P50406); settings: Compound concentration 10.0 uM
[44] = target: Beta-2 adrenergic receptor (Homo sapiens) (UniProt P07550); settings: Compound concentration 10.0 uM
[45] = target: Sigma intracellular receptor 2 (Homo sapiens, UniProt Q5BJF2); settings: Compound concentration 10.0 uM

Chain of Serine/threonine-protein kinase LATS2 (Homo sapiens) (Q9NRM7 whole entry): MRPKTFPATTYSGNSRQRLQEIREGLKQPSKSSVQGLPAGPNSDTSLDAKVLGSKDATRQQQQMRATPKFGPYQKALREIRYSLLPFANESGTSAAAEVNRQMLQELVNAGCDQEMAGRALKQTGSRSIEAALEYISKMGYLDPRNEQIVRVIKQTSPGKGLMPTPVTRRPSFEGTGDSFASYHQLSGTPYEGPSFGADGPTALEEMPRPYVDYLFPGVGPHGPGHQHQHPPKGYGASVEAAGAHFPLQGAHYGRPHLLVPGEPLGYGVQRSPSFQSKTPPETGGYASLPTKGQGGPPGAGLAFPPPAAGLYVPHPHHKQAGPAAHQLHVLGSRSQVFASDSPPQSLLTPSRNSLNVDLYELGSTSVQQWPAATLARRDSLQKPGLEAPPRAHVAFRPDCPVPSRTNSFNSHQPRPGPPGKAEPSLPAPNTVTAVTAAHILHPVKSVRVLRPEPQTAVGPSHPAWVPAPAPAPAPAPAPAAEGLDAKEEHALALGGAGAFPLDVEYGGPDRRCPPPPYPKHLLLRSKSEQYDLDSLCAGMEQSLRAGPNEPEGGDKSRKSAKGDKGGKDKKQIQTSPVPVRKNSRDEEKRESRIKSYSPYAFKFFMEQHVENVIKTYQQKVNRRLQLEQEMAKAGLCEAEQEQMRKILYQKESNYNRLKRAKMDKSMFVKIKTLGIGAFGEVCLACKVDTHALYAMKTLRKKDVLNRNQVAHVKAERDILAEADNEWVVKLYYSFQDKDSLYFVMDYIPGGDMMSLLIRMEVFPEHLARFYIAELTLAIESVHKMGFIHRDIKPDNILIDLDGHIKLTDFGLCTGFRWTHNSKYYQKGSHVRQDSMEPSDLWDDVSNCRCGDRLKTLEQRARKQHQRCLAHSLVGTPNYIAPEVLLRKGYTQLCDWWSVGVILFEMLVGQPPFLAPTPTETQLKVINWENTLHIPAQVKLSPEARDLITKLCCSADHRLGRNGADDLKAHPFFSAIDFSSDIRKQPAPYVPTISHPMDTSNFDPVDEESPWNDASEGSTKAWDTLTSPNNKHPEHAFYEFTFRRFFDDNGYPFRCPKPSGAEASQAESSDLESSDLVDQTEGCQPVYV
Chain of Mitogen-activated protein kinase kinase kinase 5 (Homo sapiens) (Q99683 whole entry): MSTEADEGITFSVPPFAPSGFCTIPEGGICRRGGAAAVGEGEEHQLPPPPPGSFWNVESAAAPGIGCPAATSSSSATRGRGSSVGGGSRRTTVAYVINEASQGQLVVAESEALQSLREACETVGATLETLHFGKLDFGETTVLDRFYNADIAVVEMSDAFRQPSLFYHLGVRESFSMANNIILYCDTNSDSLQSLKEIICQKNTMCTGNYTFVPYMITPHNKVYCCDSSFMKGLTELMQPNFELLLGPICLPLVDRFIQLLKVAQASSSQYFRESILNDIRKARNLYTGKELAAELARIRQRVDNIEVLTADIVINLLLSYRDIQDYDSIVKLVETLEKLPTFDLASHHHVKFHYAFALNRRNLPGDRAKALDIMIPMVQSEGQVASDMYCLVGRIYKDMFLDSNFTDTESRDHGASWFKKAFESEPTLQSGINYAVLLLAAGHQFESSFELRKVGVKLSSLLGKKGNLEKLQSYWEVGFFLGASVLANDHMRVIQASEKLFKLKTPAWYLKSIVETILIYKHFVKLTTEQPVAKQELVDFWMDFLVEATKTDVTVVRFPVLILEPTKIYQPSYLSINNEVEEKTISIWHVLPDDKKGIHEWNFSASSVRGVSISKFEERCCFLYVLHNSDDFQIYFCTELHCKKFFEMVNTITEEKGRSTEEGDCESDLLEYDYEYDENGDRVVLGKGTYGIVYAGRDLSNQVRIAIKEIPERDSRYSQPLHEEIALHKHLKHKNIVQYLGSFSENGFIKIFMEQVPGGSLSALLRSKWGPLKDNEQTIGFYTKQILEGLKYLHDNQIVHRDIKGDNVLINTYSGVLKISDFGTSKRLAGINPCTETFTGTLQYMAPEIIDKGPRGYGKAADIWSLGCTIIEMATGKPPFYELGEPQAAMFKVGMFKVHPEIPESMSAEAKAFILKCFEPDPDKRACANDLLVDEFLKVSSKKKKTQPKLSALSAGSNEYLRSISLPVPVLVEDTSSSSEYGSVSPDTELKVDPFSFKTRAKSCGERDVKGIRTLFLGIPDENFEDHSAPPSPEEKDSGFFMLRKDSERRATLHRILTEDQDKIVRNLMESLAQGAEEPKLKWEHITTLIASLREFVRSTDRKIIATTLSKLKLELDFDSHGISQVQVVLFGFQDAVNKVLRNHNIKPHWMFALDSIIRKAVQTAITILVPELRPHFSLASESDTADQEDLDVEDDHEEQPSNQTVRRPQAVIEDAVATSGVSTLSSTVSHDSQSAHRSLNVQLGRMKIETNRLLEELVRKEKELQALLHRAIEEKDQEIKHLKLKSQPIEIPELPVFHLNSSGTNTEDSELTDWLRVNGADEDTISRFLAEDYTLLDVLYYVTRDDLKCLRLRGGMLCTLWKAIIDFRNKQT
Chain of Dual specificity tyrosine-phosphorylation-regulated kinase 2 (Homo sapiens) (Q92630 whole entry): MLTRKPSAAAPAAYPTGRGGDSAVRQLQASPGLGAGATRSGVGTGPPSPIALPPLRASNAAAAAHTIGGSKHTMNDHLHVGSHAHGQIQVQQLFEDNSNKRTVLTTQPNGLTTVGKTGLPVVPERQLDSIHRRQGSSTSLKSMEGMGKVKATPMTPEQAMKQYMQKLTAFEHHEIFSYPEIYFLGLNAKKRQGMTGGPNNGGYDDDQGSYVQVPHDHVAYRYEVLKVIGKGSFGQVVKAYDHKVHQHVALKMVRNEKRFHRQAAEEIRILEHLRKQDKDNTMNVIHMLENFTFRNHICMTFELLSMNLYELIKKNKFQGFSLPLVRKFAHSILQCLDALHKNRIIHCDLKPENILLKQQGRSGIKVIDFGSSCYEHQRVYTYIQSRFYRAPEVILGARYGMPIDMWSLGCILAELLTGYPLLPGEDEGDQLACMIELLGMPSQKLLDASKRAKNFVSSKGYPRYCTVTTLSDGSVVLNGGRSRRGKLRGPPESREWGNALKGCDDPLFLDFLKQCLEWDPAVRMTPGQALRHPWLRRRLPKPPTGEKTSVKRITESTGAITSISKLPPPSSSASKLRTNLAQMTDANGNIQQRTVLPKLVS
Chain of Mitogen-activated protein kinase 6 (Homo sapiens) (Q16659 whole entry): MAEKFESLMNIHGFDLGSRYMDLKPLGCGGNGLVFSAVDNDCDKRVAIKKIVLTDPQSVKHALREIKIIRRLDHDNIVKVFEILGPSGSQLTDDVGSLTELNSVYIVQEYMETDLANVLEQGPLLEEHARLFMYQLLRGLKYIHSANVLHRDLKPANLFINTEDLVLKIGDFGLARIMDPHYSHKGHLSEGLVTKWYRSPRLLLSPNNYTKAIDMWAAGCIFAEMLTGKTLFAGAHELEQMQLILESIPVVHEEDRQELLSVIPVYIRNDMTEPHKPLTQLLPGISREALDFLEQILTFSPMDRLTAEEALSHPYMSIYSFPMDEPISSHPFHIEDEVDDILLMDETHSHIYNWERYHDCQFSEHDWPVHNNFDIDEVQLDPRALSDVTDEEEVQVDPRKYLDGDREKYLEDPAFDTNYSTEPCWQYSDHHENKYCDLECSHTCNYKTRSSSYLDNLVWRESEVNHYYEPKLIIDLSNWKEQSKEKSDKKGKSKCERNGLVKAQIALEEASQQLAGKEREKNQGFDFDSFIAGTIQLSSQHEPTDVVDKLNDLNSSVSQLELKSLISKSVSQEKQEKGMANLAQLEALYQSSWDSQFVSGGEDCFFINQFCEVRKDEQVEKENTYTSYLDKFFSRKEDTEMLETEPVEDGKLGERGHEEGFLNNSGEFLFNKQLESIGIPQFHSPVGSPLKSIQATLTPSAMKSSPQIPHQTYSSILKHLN
Chain of Muscle, skeletal receptor tyrosine-protein kinase (Homo sapiens) (O15146 whole entry): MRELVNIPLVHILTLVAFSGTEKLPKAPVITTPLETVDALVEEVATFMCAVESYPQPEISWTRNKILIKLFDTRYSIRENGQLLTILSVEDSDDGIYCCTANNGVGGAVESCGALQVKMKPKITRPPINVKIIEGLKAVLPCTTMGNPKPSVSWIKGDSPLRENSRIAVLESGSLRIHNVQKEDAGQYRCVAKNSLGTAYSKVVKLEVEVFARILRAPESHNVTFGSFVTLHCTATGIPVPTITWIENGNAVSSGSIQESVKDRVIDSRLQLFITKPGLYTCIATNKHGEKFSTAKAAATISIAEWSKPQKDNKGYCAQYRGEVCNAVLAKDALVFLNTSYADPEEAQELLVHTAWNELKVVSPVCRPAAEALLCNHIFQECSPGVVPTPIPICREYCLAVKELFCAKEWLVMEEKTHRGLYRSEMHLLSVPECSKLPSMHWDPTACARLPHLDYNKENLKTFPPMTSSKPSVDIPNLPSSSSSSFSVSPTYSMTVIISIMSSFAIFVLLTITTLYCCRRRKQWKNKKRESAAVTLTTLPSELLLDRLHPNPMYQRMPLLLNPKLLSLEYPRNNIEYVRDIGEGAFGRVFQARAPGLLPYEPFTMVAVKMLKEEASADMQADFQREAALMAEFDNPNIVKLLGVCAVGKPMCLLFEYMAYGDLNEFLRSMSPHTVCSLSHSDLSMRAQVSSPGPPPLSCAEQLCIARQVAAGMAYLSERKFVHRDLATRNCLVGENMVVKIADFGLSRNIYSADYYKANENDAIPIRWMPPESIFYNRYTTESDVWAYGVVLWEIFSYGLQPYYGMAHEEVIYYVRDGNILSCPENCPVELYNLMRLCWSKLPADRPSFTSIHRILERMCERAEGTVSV
Chain of Beta-2 adrenergic receptor (Homo sapiens) (P07550 whole entry, looked up): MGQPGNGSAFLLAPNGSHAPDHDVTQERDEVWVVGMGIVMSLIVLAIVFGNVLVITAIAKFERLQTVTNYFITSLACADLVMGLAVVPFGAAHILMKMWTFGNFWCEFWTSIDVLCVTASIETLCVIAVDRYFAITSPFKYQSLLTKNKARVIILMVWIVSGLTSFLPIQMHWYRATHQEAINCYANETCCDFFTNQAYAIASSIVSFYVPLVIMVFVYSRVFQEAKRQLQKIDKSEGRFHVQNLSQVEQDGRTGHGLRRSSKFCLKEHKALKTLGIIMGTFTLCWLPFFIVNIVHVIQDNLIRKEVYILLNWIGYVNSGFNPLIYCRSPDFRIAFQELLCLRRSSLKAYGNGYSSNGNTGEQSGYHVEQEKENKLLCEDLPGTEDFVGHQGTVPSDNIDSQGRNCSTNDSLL

`C[C@H](NC(=O)c1cnc2n1[C@](C)(Cc1ccc(C#N)cc1)C(=O)N2c1cc(Cl)c(F)c(Cl)c1)C(=O)NC1(c2ccccn2)CC1` [BI 1950] gave a residual activity [1] of 97%, a residual activity [2] of 92% and a residual activity [3] of 100%. It also gave a residual activity [4] of 100%, a residual activity [5] of 100% and a residual activity [6] of 100%. It also gave a residual activity [7] of 100%, a residual activity [8] of 100% and a residual activity [9] of 98%. The residual activity [10] was 100%, the residual activity [11] was 100% and the residual activity [12] was 91%. It also gave a residual activity [13] of 100%, a residual activity [14] of 100% and a residual activity [15] of 100%. It also gave a residual activity [16] of 100%, a residual activity [17] of 100% and a residual activity [18] of 83%. The residual activity [19] was 100%, the residual activity [20] was 100% and the residual activity [21] was 100%. For the same compound, the residual activity [22] was 100%, the residual activity [23] was 99% and the residual activity [24] was 100%. For the same compound, the residual activity [25] was 100%, the residual activity [26] was 100% and the residual activity [27] was 100%. It also gave a residual activity [28] of 100%, a residual activity [29] of 100% and a residual activity [30] of 80%. It also gave a residual activity [31] of 63%, a residual activity [32] of 88% and a residual activity [33] of 100%. It also gave a residual activity [34] of 100%, a residual activity [35] of 68% and a residual activity [36] of 100%. The residual activity [37] was 100%, the residual activity [38] was 82% and the residual activity [39] was 100%. For the same compound, the residual activity [40] was 59%, the residual activity [41] was 65% and the residual activity [42] was 100%. It also gave an inhibition [43] of 6.67%, an inhibition [44] of -9.72% and an inhibition [45] of 25.9%.
In the case of `C[C@@]1(Cc2ccc(C#N)cc2)C(=O)N(c2cc(Cl)cc(Cl)c2)c2ncc(C(=O)NC3(c4nc(C5CCC5)no4)CC3)n21` [BI 9446], the residual activity [1] is reported as 89%, the residual activity [2] is reported as 100% and the residual activity [3] is reported as 100%. The residual activity [4] was 90%, the residual activity [5] was 100% and the residual activity [6] was 100%. The residual activity [7] was 100%, the residual activity [8] was 100% and the residual activity [9] was 93%. It also gave a residual activity [10] of 100%, a residual activity [11] of 100% and a residual activity [12] of 86%. For the same compound, the residual activity [13] was 100%, the residual activity [14] was 100% and the residual activity [15] was 100%. For the same compound, the residual activity [16] was 100%, the residual activity [17] was 100% and the residual activity [18] was 92%. It also gave a residual activity [19] of 100%, a residual activity [20] of 100% and a residual activity [21] of 92%. For the same compound, the residual activity [22] was 100%, the residual activity [23] was 100% and the residual activity [24] was 100%. For the same compound, the residual activity [25] was 100%, the residual activity [26] was 12% and the residual activity [27] was 100%. For the same compound, the residual activity [28] was 100%, the residual activity [29] was 100% and the residual activity [30] was 100%. For the same compound, the residual activity [31] was 100%, the residual activity [32] was 90% and the residual activity [33] was 100%. The residual activity [34] was 100%, the residual activity [35] was 91% and the residual activity [36] was 95%. The residual activity [37] was 100%, the residual activity [38] was 100% and the residual activity [39] was 99%. For the same compound, the residual activity [40] was 97%, the residual activity [41] was 72% and the residual activity [42] was 100%. It also gave an inhibition [43] of 16.1%, an inhibition [44] of -7.08% and an inhibition [45] of 58%.
